We go through eleven molecules from patent publication US20060099643A1, “Method for determining the regulation of xenobiotic removal” (priority 2002, published 2006).

The Kd is the concentration at which binding is half-saturated.

The target in one data set is T1, SXR (Homo sapiens, UniProt O75469).
T1 sequence (O75469 1-434): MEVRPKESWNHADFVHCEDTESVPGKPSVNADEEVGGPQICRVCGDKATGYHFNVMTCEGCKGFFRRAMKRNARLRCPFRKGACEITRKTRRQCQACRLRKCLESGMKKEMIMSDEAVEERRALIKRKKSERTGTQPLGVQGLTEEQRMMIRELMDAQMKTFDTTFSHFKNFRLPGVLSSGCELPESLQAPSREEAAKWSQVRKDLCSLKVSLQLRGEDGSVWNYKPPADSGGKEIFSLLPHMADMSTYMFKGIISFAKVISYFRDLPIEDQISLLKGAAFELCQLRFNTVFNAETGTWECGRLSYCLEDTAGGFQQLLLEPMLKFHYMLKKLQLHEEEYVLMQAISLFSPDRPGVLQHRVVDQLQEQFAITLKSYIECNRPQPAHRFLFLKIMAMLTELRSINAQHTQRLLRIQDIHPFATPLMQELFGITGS
The experiment in a line: Microplate thermal shift assay (Thermofluor) of SXR with ligands, co-activator peptide SRC1-NR2 and co-repressor peptide NCoR-1. The settings on record: for ΔΔTm SRC1-NR2 / ΔTm ligand / ΔΔTm NcoR1-NR2: SXR 6 μM, ligand 50 μM; for ΔΔTm SRC1-NR2: co-activator peptide SRC1-NR2 100 μM; for ΔΔTm SRC1-NR2 / ΔΔTm NcoR1-NR2: change from the receptor-ligand ΔTm; for ΔTm ligand: average of four experiments; for Probability Agonist (statistical probability of agonist state): computed from affinities derived from ΔΔTm with co-regulator peptides (FIG. 3); for ΔTm at 100 µM: read-out: ΔΔTm NcoR1-NR2; for ΔΔTm NcoR1-NR2: co-repressor peptide NCoR-1 100 μM. As for the experimental part: A 2 μL ligand solution at 2 times the final concentration was dispensed with a micropipette into a 384 well black wall Greiner plate. Then, 2 μL of the protein dye solution was dispensed on top of the ligand solution in the 384 well plate. The plates were spun to ensure mixing of the protein-dye and ligand solutions followed by layering of 1 μL of silicone oil to prevent evaporation during heating of the samples. […] The values for the co-regulators represent a change in Tm stabilization from the receptor-ligand ΔTm values.
A general note: In DSF a fluorescence change marks the thermal transition of the protein.

For data set [1], the target named is ER-β (Homo sapiens, UniProt Q92731). The experiment in a line: Microplate thermal shift assay (Thermofluor) of ER-β with ligands and co-regulators. The class given is binding. The settings on record: for Observed ΔTm Stabilization, SRC3-NR2: co-activator peptide SRC3-NR2 100 μM; for Observed ΔTm Stabilization, NR2: change in Tm stabilization from the receptor-ligand ΔTm; for Observed ΔTm Stabilization, NR2 / Observed ΔTm Stabilization, SRC-3: head shifted, see doubts; for Observed ΔTm Stabilization, SRC-3: average of four experiments.
Sequence of ER-β (Homo sapiens, UniProt Q92731) (Q92731 whole entry, species assumed): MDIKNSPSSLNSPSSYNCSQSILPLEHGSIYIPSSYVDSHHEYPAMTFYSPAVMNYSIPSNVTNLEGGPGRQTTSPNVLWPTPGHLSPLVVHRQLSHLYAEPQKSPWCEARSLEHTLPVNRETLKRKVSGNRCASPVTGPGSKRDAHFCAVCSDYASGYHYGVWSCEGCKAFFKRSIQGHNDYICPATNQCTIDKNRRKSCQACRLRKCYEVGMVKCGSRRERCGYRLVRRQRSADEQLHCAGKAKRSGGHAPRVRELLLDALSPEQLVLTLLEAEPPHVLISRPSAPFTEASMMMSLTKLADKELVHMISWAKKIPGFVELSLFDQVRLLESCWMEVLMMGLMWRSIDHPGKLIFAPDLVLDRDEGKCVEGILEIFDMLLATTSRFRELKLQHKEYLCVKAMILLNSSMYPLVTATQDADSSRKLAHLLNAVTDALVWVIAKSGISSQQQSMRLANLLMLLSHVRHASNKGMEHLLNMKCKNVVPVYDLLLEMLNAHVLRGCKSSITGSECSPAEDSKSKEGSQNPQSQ
Description: (§1) A 2 μM ligand solution at 2 times the final concentration was dispensed with a micropipette into a 384 well black wall Greiner plate. Then, 2 μL of the protein dye solution was dispensed on top of the ligand solution in the 384 well plate. The plates were spun to ensure mixing of the protein-dye and ligand solutions followed by layering of 1 μL of silicone oil to prevent evaporation during heating of the samples.

Data set [2] addresses T2, ER-α (Homo sapiens, UniProt P03372).
T2 sequence (P03372 1-595): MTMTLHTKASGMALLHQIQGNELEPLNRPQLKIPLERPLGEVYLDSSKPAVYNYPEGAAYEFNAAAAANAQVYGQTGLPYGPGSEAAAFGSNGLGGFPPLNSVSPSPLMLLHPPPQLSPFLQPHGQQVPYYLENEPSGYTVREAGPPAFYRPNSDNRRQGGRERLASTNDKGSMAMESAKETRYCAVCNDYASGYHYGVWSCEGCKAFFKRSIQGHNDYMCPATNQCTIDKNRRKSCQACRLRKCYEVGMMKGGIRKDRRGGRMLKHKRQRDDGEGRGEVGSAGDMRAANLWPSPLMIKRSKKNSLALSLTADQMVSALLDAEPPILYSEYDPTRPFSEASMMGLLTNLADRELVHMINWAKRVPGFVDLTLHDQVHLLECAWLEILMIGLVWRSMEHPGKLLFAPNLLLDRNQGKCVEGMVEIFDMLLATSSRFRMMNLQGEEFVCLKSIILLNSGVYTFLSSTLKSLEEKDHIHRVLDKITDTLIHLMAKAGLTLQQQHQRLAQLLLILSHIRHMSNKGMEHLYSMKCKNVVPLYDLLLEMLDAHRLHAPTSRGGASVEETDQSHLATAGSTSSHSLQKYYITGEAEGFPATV
The experiment in a line: Microplate thermal shift assay (Thermofluor) of ER-α with ligands and co-regulators. The class given is binding.
Description: as §1

Data set [3] concerns the target T3, ER-α (UniProt P03372 297-554, limits assumed).
T3 construct: also called estrogen receptor alpha
T3 sequence (looked up): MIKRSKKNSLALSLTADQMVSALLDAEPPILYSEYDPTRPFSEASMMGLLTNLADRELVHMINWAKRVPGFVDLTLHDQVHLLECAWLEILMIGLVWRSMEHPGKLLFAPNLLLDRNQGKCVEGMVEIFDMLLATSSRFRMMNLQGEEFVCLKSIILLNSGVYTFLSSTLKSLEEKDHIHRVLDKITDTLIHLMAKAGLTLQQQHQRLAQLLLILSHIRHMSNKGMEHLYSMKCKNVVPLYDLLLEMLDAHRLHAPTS
The experiment in a line: Thermofluor thermal shift; ER-α 8 µM, no ligand; peptide 100 µM.
Description: as §1

In data set [4] the target is T4, ER-β (UniProt Q92731 256-505, limits assumed).
T4 construct: also called estrogen receptor beta
T4 sequence (Q92731 256-505 limits assumed): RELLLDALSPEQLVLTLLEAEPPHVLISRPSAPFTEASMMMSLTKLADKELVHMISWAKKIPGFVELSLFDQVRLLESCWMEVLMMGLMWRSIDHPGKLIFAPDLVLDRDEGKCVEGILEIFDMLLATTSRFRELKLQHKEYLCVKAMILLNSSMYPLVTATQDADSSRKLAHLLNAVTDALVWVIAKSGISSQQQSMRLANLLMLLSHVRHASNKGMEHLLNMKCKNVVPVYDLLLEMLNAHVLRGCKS
The experiment in a line: Thermofluor thermal shift; ER-β 8 µM, no ligand; peptide 100 µM.
Description: as §1

The target of data set [5] is T3, ER-α. The experiment in a line: Thermofluor thermal shift; ER-α 8 µM with estrone 20 µM; peptide 100 µM.
Description: as §1
For data set [6], the target named is T4, ER-β. The experiment in a line: Thermofluor thermal shift; ER-β 8 µM with estrone 20 µM; peptide 100 µM.
Description: as §1
The target in data set [7] is T3, ER-α. The experiment in a line: Thermofluor thermal shift; ER-α 8 µM with estradiol 20 µM; peptide 100 µM.
Description: as §1
The target of data set [8] is T3, ER-α. The experiment in a line: Thermofluor thermal shift; ER-α 8 µM with tamoxifen 20 µM; peptide 100 µM.
Description: as §1
The target of data set [9] is T4, ER-β. The experiment in a line: Thermofluor thermal shift; ER-β 8 µM with estradiol 20 µM; peptide 100 µM.
Description: as §1
Data set [10] addresses T4, ER-β. The experiment in a line: Thermofluor thermal shift; ER-β 8 µM with tamoxifen 20 µM; peptide 100 µM.
Description: as §1
The target of data set [11] is T3, ER-α. The experiment in a line: Thermofluor thermal shift; ER-α 8 µM with ICI-182780 20 µM; peptide 100 µM.
Description: as §1
For data set [12], the target named is T4, ER-β. The experiment in a line: Thermofluor thermal shift; ER-β 8 µM with ICI-182780 20 µM; peptide 100 µM.
Description: as §1
Data set [13] concerns the target T3, ER-α. The experiment in a line: Thermofluor thermal shift; ER-α 8 µM with 2-methoxy-E2 20 µM; peptide 100 µM.
Description: as §1
In data set [14] the target is T4, ER-β. The experiment in a line: Thermofluor thermal shift; ER-β 8 µM with 2-methoxy-E2 20 µM; peptide 100 µM.
Description: as §1
Data set [15] deals with T3, ER-α. The experiment in a line: Thermofluor thermal shift; ER-α 8 µM with 4-OH-tamoxifen 20 µM; peptide 100 µM.
Description: as §1
Data set [16] concerns the target T4, ER-β. The experiment in a line: Thermofluor thermal shift; ER-β 8 µM with 4-OH-tamoxifen 20 µM; peptide 100 µM.
Description: as §1
Data set [17] deals with T3, ER-α. The experiment in a line: Thermofluor thermal shift; ER-α 8 µM with 17-α-ethylene-E2 20 µM; peptide 100 µM.
Description: as §1
Data set [18] deals with T4, ER-β. The experiment in a line: Thermofluor thermal shift; ER-β 8 µM with 17-α-ethylene-E2 20 µM; peptide 100 µM.
Description: as §1
The mark [19] stands for this setting: ER-β 8 μM, ligand 20 μM, change from the receptor-ligand ΔTm.

`C[C@]12CCC(=O)C=C1CC[C@@H]1[C@@H]2[C@@H](O)C[C@@]2(C)[C@H]1CC[C@]2(O)C(=O)CO` [Hydrocortisone]: at SXR, the Kd stood at 17 µM, the “ΔΔTm SRC1-NR2” value stood at 3.3, the ΔTm ligand came to 1.6 °C and the “Probability Agonist (statistical probability of agonist state)” value (“Probability Agonist” for short) was 0.44. Further, on SXR, the ΔTm at 100 µM was determined as 3.7 °C.

Consider `CC(=O)[C@@]1(O)CC[C@H]2[C@@H]3CCC4=CC(=O)CC[C@]4(C)[C@H]3CC[C@@]21C` [17-α-hydroxyprogesterone], for which the “Probability Agonist” value at SXR is recorded as 0.47.

In the case of `C[C@]12CC[C@@H]3c4ccc(O)cc4CC[C@H]3[C@@H]1CC[C@@H]2O` [Estradiol], at ER-β [1] (setting [19]), the “Observed ΔTm Stabilization, SRC3-NR2” value is 3.5. Also, the “Observed ΔTm Stabilization, NR2” value on ER-β [1] (ER-β 8 μM, ligand 20 μM) is 3.4. At SXR, the Kd was found to be 8.7 µM, the “ΔΔTm SRC1-NR2” value is reported as 3.9, the “Probability Agonist” value is given as 0.76 and the ΔTm at 100 µM amounted to 2.3 °C.

Take `C[C@]12CC[C@@H](O)C[C@@H]1CC[C@@H]1[C@@H]2CC[C@]2(C)C(=O)CC[C@@H]12` [Androsterone]: at SXR, the “ΔΔTm SRC1-NR2” value was 3.5, the ΔTm ligand is 3.3 °C, the “Probability Agonist” value is listed as 0.45 and the ΔTm at 100 µM was 3.8 °C.

With `CC(=O)[C@H]1CC[C@H]2[C@@H]3CCC4=CC(=O)CC[C@]4(C)[C@H]3[C@H](O)C[C@]12C` [11-α-hydroxy-progesterone], at SXR, the “ΔΔTm SRC1-NR2” value is 4.6, the “ΔΔTm NcoR1-NR2” value amounted to 1.0, the ΔTm ligand was found to be 6.3 °C and the “Probability Agonist” value was determined as 0.96.

Take `C[C@]12CC[C@@H]3c4ccc(O)cc4C[C@@H](CCCCCCCCC[S+]([O-])CCCC(F)(F)C(F)(F)F)[C@H]3[C@@H]1CC[C@@H]2O` (some centres unmarked) [ICI-182780]: on ER-α [2] (ER-α 8 μM, ligand 20 μM, co-activator peptide SRC3-NR2 100 μM, change from the receptor-ligand ΔTm), the “Observed ΔTm Stabilization, SRC3-NR2” value came out at 0.2. In addition, the ΔTm at 100 µM on ER-α [2] (ER-α 8 μM, ligand 20 μM, co-repressor peptide NCoR-1 100 μM, change from the receptor-ligand ΔTm, read-out: Observed ΔTm Stabilization, NCoR1-NR1) is -0.6 °C; at ER-β [1] (ER-β 8 μM, ligand 20 μM, co-repressor peptide NCoR-1 100 μM, change from the receptor-ligand ΔTm, read-out: Observed ΔTm Stabilization, NCoR1-NR1) it was 0.3 °C. In addition, the “Observed ΔTm Stabilization, NR2” value came out at 0.2 at ER-α [2] (ER-α 8 μM, ligand 20 μM, change in Tm stabilization from the receptor-ligand ΔTm, head shifted, see doubts) and 0.4 at ER-β [1] (ER-β 8 μM, ligand 20 μM). The “Recruitment of co-activators (additional stabilization in the presence of co-activator protein/peptide)” value at ER-α [2] (result in words) and on ER-β [1] (result in words) was “no ability to recruit co-activators” each time. Moreover, the “Observed ΔTm Stabilization, SRC-3” value at ER-β [1] (ER-β 8 μM, ligand 20 μM) is reported as 16.7.

Consider `C[C@]12CCC(=O)C=C1CC[C@@H]1[C@@H]2C(=O)C[C@@]2(C)[C@H]1CC[C@]2(O)C(=O)CO` [Cortisone], for which, on SXR, the “ΔΔTm NcoR1-NR2” value came to 3.6 and the “Probability Agonist” value is given as 0.37.

For `COc1cc2c(cc1O)CC[C@@H]1[C@@H]2CC[C@]2(C)[C@@H](O)CC[C@@H]12` [Ligand 2-methoxy-E2, 2-methoxy-E2], the “Observed ΔTm Stabilization, SRC-3” value at ER-α [2] (ER-α 8 μM, ligand 20 μM, average of four experiments, head shifted, see doubts) is 3.5. The “Observed ΔTm Stabilization, SRC3-NR2” value at ER-β [1] (setting [19]) is on record as 4.4. Moreover, the “Observed ΔTm Stabilization, NCoR1-NR1” value on ER-β [1] (ER-β 8 μM, ligand 20 μM, co-repressor peptide NCoR-1 100 μM, change from the receptor-ligand ΔTm) is −0.7. Besides, at ER-β [1] (ER-β 8 μM, ligand 20 μM), the “Observed ΔTm Stabilization, SRC-3” value worked out at 2.9 and the “Observed ΔTm Stabilization, NR2” value turned out to be 4.4.

In the case of `C[C@H](CCC(=O)O)[C@H]1CC[C@H]2[C@@H]3CC[C@@H]4C[C@H](O)CC[C@]4(C)[C@H]3CC[C@]12C` [Lithocholic acid], at SXR, the “ΔΔTm SRC1-NR2” value is 2.9, the ΔTm ligand was found to be 2.4 °C and the ΔTm at 100 µM is 1.4 °C.

In the case of `CCOC(=O)C(C)(C)Oc1ccc(Cl)cc1` [Clofibrate], at SXR, the Kd amounted to 23 µM, the “ΔΔTm SRC1-NR2” value was 3.3, the ΔTm ligand is 1.3 °C and the “Probability Agonist” value was found to be 0.49. Further, the ΔTm at 100 µM on SXR was found to be 3.4 °C.

For the molecule MHGSLLQEKHRILHKLLQNGNSP (peptide, UniProt Q9Y6Q9 673-695, looked up, Peptide fragment of SRC-3) [co-activator peptide SRC3-NR2], the “change in Tm stabilization from the receptor-ligand ΔTm” value (from here on “change … from the receptor-ligand ΔTm”) with ER-α [3] stood at 0.9; with ER-β [4], 0.9; with ER-α [5] it was 2.3; with ER-β [6], 3.7; with ER-α [7], 4.3; with ER-α [8], 0. The “change … from the receptor-ligand ΔTm” value is 3.5 with ER-β [9]; 0.4 with ER-β [10]; 0.2 with ER-α [11]; 0.6 with ER-β [12]; 4.3 in the data set with ER-α [13]; 4.4 in the data set with ER-β [14]. Besides, the “change … from the receptor-ligand ΔTm” value with ER-α [15] was 0.7; with ER-β [16] it was 0.8; in the data set with ER-α [17], 3.9; with ER-β [18], 2.6.
